Laboratory results as given in paper PMC5630639 (Scientific Reports, 2017).

Assays:
[1] = test system: colchicine-binding site of β-tubulin; assay: EBI competition assay; assay type: cell-based, human; settings: preincubation 0.25 and 5 μM, 2 h; EBI 100 μM
Protocol: Six-well plates were seeded with MGC-803 cells at 5 × 10^5 cells per well. […] After 2 h, the cells were harvested and cell extracts were prepared for Western blot analysis. 20 μg of proteins was subjected to gel electrophoresis using 10% polyacrylamide gels. The proteins were transferred onto PVDF membranes, then blocked by 5% nonfatmilk for 1 h, and subsequently incubated with anti-β-tubulin antibody for 16 h at 4 °C. Next, the membranes were washed extensively and immunoreactive proteins were finally detected by chemiluminescence.

MGC-803 cells [2] = assay: Cell cycle analysis by flow cytometry; assay type: cell-based, human; settings: for G2/M population: 24 h (Fig. 3A)
Protocol: MGC-803 cells were incubated in the absence and presence of 28. Subsequently, the cells were fixed with 70% alcohol in PBS. The fixed cells were incubated with RNase (1 µg/mL) propidium iodide (50 µg/mL) for 2 h. Flow cytometry analysis was performed using BD FACS (Becton Dickinson, San Jose, CA, USA).

MGC-803 cells [3] = assay: Annexin V-FITC/PI apoptosis analysis by flow cytometry; assay type: cell-based, human; settings: 24 h
Protocol: We next evaluated whether 28 induces apoptosis in MGC-803 cells by flow cytometry analysis of propidium iodide (PI) and Annexin V stained cells. […] When MGC-803 cells were incubated with 28 at 0.1, 0.2, and 0.3 μM for 24 h, the percentages of early apoptotic cells were 12.4%, 40.5%, and 49.7%, respectively and those of late apoptotic cells 2.1%, 10.1%, and 9.4%, respectively (Fig. 4A). Bcl-2 family proteins were crucial components of mitochondrial stress-induced cellular apoptosis. Thus, the expression of apoptosis-related proteins was also determined.
An Annexin V-FITC/PI kit (KeyGEN BioTECH, Nanjing, China) was used to detect apoptosis. Cells were seeded in 6-well plates and treated with 0, 0.1, 0.2 and 0.3 µM of 28 for 24 h. Then MGC-803 cells were collected and suspended in binding buffer containing Annexin V-FITC (0.5 mg/mL) and PI (0.5 mg/mL) and incubated in dark for 20 min and analyzed by flow cytometry (Becton, Dickinson and Company, NJ). The apoptosis related proteins of western blot analysis were conducted according to our previously reported method[31],[32].

tubulin = assay: In vitro tubulin polymerization assay; assay type: biochemical; settings: 5.6 mg/ml tubulin, absorbance 340 nm, 37 °C; read-out: tubulin polymerization inhibition IC50
Protocol: The in vitro tubulin polymerization inhibitory activity of 28 was then evaluated. Purified and unpolymerized tubulin was incubated with 28 at indicated concentrations, and tubulin polymerization was measured by the method originally described by D. Bone et al.[46].
An amount of 5.6 mg/ml tubulin was resuspended in PEM buffer [80 mM PIPES (pH 6.9), 1 mM EGTA, 0.5 mM MgCl2, 1 mM […], 10.2% (v/v) glycerol] and then was preincubated with compound 28 or vehicle DMSO on ice. The reaction was monitored by a spectrophotometer in absorbance at 340 nm at 37 °C every 5 min. The final concentrations of 28 were listed as follows: 0, 1, 2, and 4 µM.

[4] = test system: interphase microtubules in MGC-803 cells; assay: Immunofluorescence staining of tubulin; assay type: cell-based, human; settings: 24 h
Protocol: As the microtubule system plays a vital role in the maintenance of cell shape and basic cellular functions, an immunofluorescence staining assay was performed to study whether compound 28 could disrupt the microtubule dynamics in living cells.
Cell climbing slices were sterilized and placed on the bottom of a 24-well plate for 24 h before MGC-803 cells were incubated in DMSO, different concentrations of 28 or CA-4P solutions were added. The next day the cell climbing slices were fixed by 4% paraformaldehyde for 15 min after washed by PBS for 3 times. 0.5% Triton-X-100 was added and shaked for 20 min. 0.1% BSA was used to block for 30 min and then removed. The cell climbing slices were added α-tubulin antibody (1:100) and incubated overnight at 4 °C in humid box. On the third day the humid box was taken out and balanced at 37 °C for 30 min. The cell climbing slices were washed by PBST for 3 times for each of 3 minutes and coated with FITC antibody (1:500) in a dark place for 1 h at room temperature. DAPI was used to re-stained for 5 min and then removed. The cell climbing slices were sealing by an anti-fluorescence quenching agent and images collected by Laser scanning confocal microscope (Nikon, Japan).

MGC-803 cells [5] = assay: Transwell cell migration assay; assay type: cell-based, human; settings: 24 h (control 29.4)
Protocol: (§1) In a transwell test, the average numbers of migrated cells in fields of control, 0.1 and 0.2 μM 28 treated MGC-803 cells were 29.4, 22.4 and 16.6, respectively (Fig. 6B and C). Based on the results from these tests, we next examined the protein expression of EMT-related makers such as E-cadherenin, N-cadherenin, ZO-1 and Vementin[55].
The test was performed in a transwell plate (Corning). MGC-803 cells were added to the upper chamber of a transwell plate. Control and different concentrations of 28 solutions were added to both upper and bottom chambers. Then the transwell plate was cultured at 37 °C in a humidified incubator containing 5% CO2 for 24 h. The next day, all contents in the upper chamber were removed and wiped by cotton buds. Alcohol was used to fix, and the crystal violet was used to stain the transwell for 30 min. After washed by PBS the cell chambers were observed and photos taken. The cell number of the migrated cells through the transwell was calculated by counting 5 visual fields of each group (P < 0.05)[55],[56].

MGC-803 cells [6] = assay: Western blot of EMT-related markers; assay type: cell-based, human
Protocol: as §1

- IC50 (tubulin): 2260 nM
Structure (SMILES): COc1cc(N2C(=O)[C@H](c3cccs3)[C@H]2c2cccc(N=[N+]=[N-])c2)cc(OC)c1OC (relative stereo) [Compound 28, trans-4-(3-azidophenyl)-3-(thiophen-2-yl)-1-(3,4,5-trimethoxyphenyl)azetidin-2-one]
- formation of the EBI: β-tubulin adduct [1]: dose-dependently prevented the formation of the EBI: β-tubulin adduct
- cells at the G2/M phase (MGC-803 cells [2]; 0.1 μM, 12 h (Fig. 3C)): 12.63%
- G2/M population (MGC-803 cells [2]; 0.1 μM): 14.13%
- cells at the G2/M phase (MGC-803 cells [2]; 0.1 μM, 36 h (Fig. 3C)): 44.59%
- G2/M population (MGC-803 cells [2]; 0.2 μM): 23.42%
- G2/M population (MGC-803 cells [2]; 0.3 μM): 44.37%
- early apoptotic cells (MGC-803 cells [3]; 0.1 μM): 12.4%
- late apoptotic cells (MGC-803 cells [3]; 0.1 μM): 2.1%
- early apoptotic cells (MGC-803 cells [3]; 0.2 μM): 40.5%
- late apoptotic cells (MGC-803 cells [3]; 0.2 μM): 10.1%
- early apoptotic cells (MGC-803 cells [3]; 0.3 μM): 49.7%
- late apoptotic cells (MGC-803 cells [3]; 0.3 μM): 9.4%
- depolymerization of interphase microtubules ([4]; 0.075 μM): moderately depolymerized
- depolymerization of interphase microtubules ([4]; 0.3 μM): much stronger
- average number of migrated cells in fields (MGC-803 cells [5]; 0.1 μM): 22.4
- average number of migrated cells in fields (MGC-803 cells [5]; 0.2 μM): 16.6
- expression of E-cadherin and ZO-1 (MGC-803 cells [6]): up-regulated
- expression of N-cadherin and vimentin (MGC-803 cells [6]): down-regulated
